# In patent US11523995B2, “Compositions and methods for ablating niche cells in testis and other epithelial cells and methods relating thereto” (Duke University, priority 2017, dated 2022):
# Tested on: Sertoli cells
# Assay: Inhibition of in vitro Sertoli cell ablation with BC by cell death pathway inhibitors
# Type: cell-based, mouse
# Conditions: 30 min inhibitor pre-treatment, 10 min BC, culture with inhibitor 4 days, neonatal testis
# Description: Fragments of the mouse testis were incubated with 0.02% BC for 10 min. After washing several times with PBS, tissues were placed atop 1.5% agarose blocks (214530; Difco), prepared and placed in 6 well tissue culture plates (353046; Falcon) with ˜500 μl of 10% FBS+DMEM (11995-065; Gibco) to reach halfway up the side of the block. After culture, tissues were washed in PBS and fixed for immunofluorescence. The dog testis tissues were incubated with 0.02% or 0.03% BC for 10 min and cultured with 10% KnockOut Serum Replacement (KSR) (Invitrogen; 10828-028)+DMEM (Yokonishi, T., et al. Methods in Molecular Biology 927: 479-488 (2013)). The culture incubator was supplied with 5% (vol/vol) carbon dioxide in air and maintained at 37° C. Q-VD (OMe)-OPh (A8165; ApexBio), Necrostatin-1, Spautin-1 (Sigma; SML0440), 3-Methyladenine (Cayman; CAS 5142-23-4), LY294002 (Cayman; CAS 154447-36-6), Bafilomycin A1 (Cayman; CAS88899-55-2) were used as cell death inhibitors. Next, we investigated the Sertoli cell death pathway caused by BC treatment. Testes from neonatal pups were pre-treated with 1% DMSO (as a control) or with cell death pathway inhibitors, pan-caspase inhibitor, 2,6-difluorophenoxymethylketone-based inhibitor (Q-VD-OPH), necrosis inhibitor (Necrostatin-1) and autophagy inhibitors, Spautin-1, LY294002, or Bafilomycin A1, for 30 min. Pre-treatments were followed by a 10 min BC treatment, washing, and culture in the presence of the inhibitor for 4 days (FIG. 3).
row,Structure (SMILES),rescue of Sertoli cells after BC treatment
1,"Cn1cnc(N)c2ncnc1-2 [3MA, 3-Methyladenine]",partially rescued Sertoli cells
2,CO/C1=C\C(C)=C\[C@@H](C)[C@@H](O)[C@@H](C)C/C(C)=C/C=C/[C@H](OC)[C@@H]([C@@H](C)[C@@H](O)[C@H](C)[C@@]2(O)C[C@@H](O)[C@H](C)[C@@H](C(C)C)O2)OC1=O [Bafilomycin A1],partially rescued Sertoli cells
3,CN1C(=O)C(Cc2c[nH]c3ccccc23)NC1=S (centres unmarked) [Necrostatin-1],did not rescue Sertoli cells
4,COC(=O)C[C@H](NC(=O)[C@@H](NC(=O)c1ccc2ccccc2n1)C(C)C)C(=O)COc1c(F)cccc1F [Q-VD-OPH],did not rescue Sertoli cells
5,Fc1ccc(CNc2ncnc3ccc(F)cc23)cc1 [Spautin-1],partially rescued Sertoli cells
